According to patent US20230065953A1, “NOVEL HETEROARYL-TRIAZOLE COMPOUNDS AS PESTICIDES” (Bayer Aktiengesellschaft, priority 2019, published 2023):

How the values were obtained:
Type in all cases: in vivo
[1] = system: green peach aphid (Myzus persicae); test: Myzus persicae spray test; details: foliar, 120 h, Chinese cabbage leaf disks, after 5 days
How it was run: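 Percent mortality read 5 days after spraying, where 100% is total kill and 0% none. The spray contained compound in acetone plus dimethylformamide, diluted with 1000 ppm emulsifier water. It was applied to Brassica pekinensis leaf disks carrying mixed-instar green peach aphids.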

[2] = system: adult cat fleas (Ctenocephalides felis); test: Ctenocephalides felis in-vitro contact test, adult cat flea; details: 5 μg/cm^2 (=500 g/ha), after 48 hours
Protocol: Ctenocephalides felis—In-Vitro Contact Tests Adult Cat Flea
(§1) 9 mg compound is solved in 1 mL acetone and diluted with acetone to the desired concentration. 250 μL of the test solution is filled in 25 mL glass test tubes and homogeneously distributed on the inner walls by rotation and tilting on a shaking device (2 h at 30 rpm). With a compound concentration of 900 ppm, an inner surface of 44.7 cm^2 and a homogeneous distribution, a dose of 5 μg/cm^2 is achieved.
(§2) After the solvent has evaporated, each test tube is filled with 5-10 adult cat fleas (Ctenocephalides felis), closed with a perforated lid and incubated in a lying position at room temperature and relative humidity. After 48 hours efficacy is determined. The fleas are patted on the ground of the tubes and are incubated on a heating plate at 45-50° C. for at most 5 minutes. Immotile or uncoordinated moving fleas, which are not able to escape the heat by climbing upwards, are marked as dead or moribund.
An efficacy of 100% means all fleas are dead or moribund; 0% means no fleas are dead or moribund.

[3] = system: fall armyworm larvae (Spodoptera frugiperda); test: Spodoptera frugiperda spray test (maize leaf sections); details: 168 h
How it was run: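 Percent kill of Spodoptera frugiperda caterpillars read at day 7. Larvae placed on dried Zea mays leaf pieces previously sprayed with test preparation, made from acetone plus DMF and diluted with emulsifier-containing water (1000 ppm).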

[4] = system: larvae of the banded cucumber beetle (Diabrotica balteata); test: Diabrotica balteata spray test; details: 168 h, 100 g/ha (=32 μg/well), wheat seeds, after 7 days, read-out: efficacy (seedling growth)
How it was run: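 Efficacy in % was read 7 days after infesting with 10-20 larvae per unit. Before infestation, 1-day-germinated wheat seedlings (5 per well) were sprayed with the active ingredient, formulated in acetone and dimethylformamide plus emulsifier and diluted with water containing emulsifier.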

[5] = system: adult brown dog ticks (Rhipicephalus sanguineus); test: Rhipicephalus sanguineus in-vitro contact test with adult brown dog ticks; details: 5 μg/cm^2 (=500 g/ha), after 48 hours, read-out: efficacy (ticks dead or moribund)
Protocol: Rhipicephalus sanguineus—In-Vitro Contact Tests with Adult Brown Dog Ticks
as §1
as §2, with “brown dog ticks (Rhipicephalus sanguineus),” for “cat fleas (Ctenocephalides felis),”, “ticks” for “fleas”, “ticks,” for “fleas,”
An efficacy of 100% means all ticks are dead or moribund; 0% means no ticks are dead or moribund.

[6] = system: larvae of the southern green stink bug (Nezara viridula); test: Nezara viridula spray test; details: in Hordeum vulgare, 96 h
How it was run: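 Mortality (%) of stink bug larvae on treated barley (Hordeum vulgare) was scored 4 days after infestation. Test solutions came from an acetone/DMF concentrate diluted with water containing 1000 ppm emulsifier and were sprayed onto plants before larvae were added.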

[7] = system: Rhipicephalus microplus larvae (strain Parkhurst, resistant against synthetic pyrethroids); test: Rhipicephalus (Boophilus) microplus in-vitro contact test, larval cattle tick; details: 5 μg/cm^2 (=500 g/ha), after 48 hours, read-out: efficacy (larvae dead or moribund)
How it was run: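 Compound in acetone coated onto the inner walls of glass tubes (900 ppm giving 5 μg/cm^2), solvent evaporated, then 20–50 larvae added and held at 27 °C, 85% RH. After 48 h, efficacy scored from negative geotactic behaviour as % dead or moribund larvae.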

[8] = system: adult engorged female ticks (Rhipicephalus microplus); test: Rhipicephalus (Boophilus) microplus injection test; details: 168 h, 4 μg/animal, egg deposition after 7 days, read-out: efficacy (infertile eggs)
How it was run: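 Five adult engorged female ticks each injected into the abdomen with 1 μL of compound in DMSO, then kept in a climate chamber. Fertile egg deposition assessed after 7 days, with unclear eggs held until hatching around 42 days; efficacy 100% means all eggs infertile, 0% all fertile.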

[9] = system: adult mosquitoes Aedes aegypti strain MONHEIM; test: Aedes aegypti test (AEDSAE surface treatment & contact assay); details: 24 hours after contact, read-out: efficacy (mortality)
Protocol: Aedes aegypti test (AEDSAE surface treatment & contact assay) • Solvent: Aceton+2000 ppm rapeseed oil methyl ester (RME)
(§3) In order to produce a sufficient, active ingredient containing solution it is necessary to solve the test compound in the solvent-mix (acetone at 2 mg/ml/RME 2000 ppm). This solution is pipetted onto a glazed tile and after evaporation of the acetone, adult mosquitoes of the species Aedes aegypti strain MONHEIM are placed onto the dried surface. The exposure time is 30 minutes.
(§4) Mortality in percent (%) is determined 24 hours after contact of the insects to the treated surface. 100% mortality means that all tested insects are dead, whereas 0% means that no insect died.

[10] = system: green peach aphid (Myzus persicae); test: Myzus persicae oral test; details: 120 h
How it was run: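 Compound was dissolved in acetone, diluted with water and mixed into IPL41 insect medium with sugar under a parafilm seal. A mixed aphid population fed through the parafilm, and mortality (%) was scored after 5 days.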

[11] = system: adult flies Musca domestica strain WHO-N; test: Musca domestica test (MUSCDO surface treatment & contact assay); details: 24 hours after contact, read-out: efficacy (mortality)
Protocol: Musca domestica Test (MUSCDO Surface Treatment & Contact Assay) • Solvent: Aceton+2000 ppm rapeseed oil methyl ester (RME)
as §3, with “flies” for “mosquitoes”, “Musca domestica” for “Aedes aegypti”, “WHO-N” for “MONHEIM”
as §4

[12] = system: adult unfed cat fleas (Ctenocephalides felis); test: Ctenocephalides felis oral test; details: 48 h
How it was run: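 About 20 adult unfed fleas fed through parafilm on cattle blood containing compound (DMSO stock diluted in blood), blood held at 37 °C and fleas at room temperature. Mortality (%) scored after 2 days.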

[13] = system: brown planthopper (Nilaparvata lugens); test: Nilaparvata lugens spray test; details: 96 h, 500 g/ha, rice plants, after 4 days
Protocol: Nilaparvata lugens—Spray Test • Solvent: 78.0 parts by weight of acetone • 1.5 parts by weight of dimethylformamide • Emulsifier: alkylarylpolyglycol ether
To produce a suitable preparation of active compound, 1 part by weight of active compound is mixed with the stated amount of solvents and is diluted with water, containing an emulsifier concentration of 1000 ppm, to the desired concentration. Further test concentrations are prepared by dilution with emulsifier containing water.
Rice plants (Oryza sativa) are sprayed with a preparation of the active ingredient of the desired concentration and the plants are infested with the brown planthopper (Nilaparvata lugens).
After 4 days mortality in % is determined. 100% means all planthoppers have been killed and 0% means none of the planthoppers have been killed.

[14] = surface concentration 4 mg/m^2, 30 min exposure
[15] = surface concentration 20 mg/m^2, 30 min exposure

| Structure (SMILES) | mortality at 100 g/ha [1] [%] | efficacy (fleas dead or moribund) [2] [%] | mortality at 100 g/ha [3] [%] | pest or weed control at 32 µg/disc, 100 g/ha [4] [%] | pest or weed control at 5 µg/cm2, 500 g/ha [5] [%] | mortality at 500 g/ha [6] [%] | pest or weed control at 5 µg/cm2 [7] [%] | pest or weed control at 0.004 mg [8] [%] | mortality at 4 mg/m2 [9, 14] [%] | mortality at 20 mg/m2 [9, 15] [%] | mortality at 4 ppm [10] [%] | mortality at 4 mg/m2 [11, 14] [%] | mortality at 20 mg/m2 [11, 15] [%] | mortality at 100 ppm [12] [%] | mortality at 500 g/ha [13] [%] | mortality at 100 g/ha [6] [%] |
| --- | --- | --- | --- | --- | --- | --- | --- | --- | --- | --- | --- | --- | --- | --- | --- | --- |
| Cc1nc([C@H](C)NC(=O)c2cc(Br)cc(OC(F)(F)F)c2)n(-c2ncc(C(=O)N(C)CC#N)s2)n1 [I-125] | 90 | 100 | 100 | 100 | 80 | 100 | 100 | – | – | – | – | – | – | – | – | – |
| Cc1nc([C@H](C)NC(=O)c2cc(Cl)cc(C(F)F)c2)n(-c2ncc(C#N)s2)n1 [I-18] | 100 | – | 100 | 100 | 100 | – | 100 | 100 | 80 to 100 | 80 to 100 | 100 | 90 to 100 | 80 to 100 | 100 | – | – |
| Cc1nc([C@H](C)NC(=O)c2cc(C(F)(F)F)cc(S(C)(=O)=O)c2)n(-c2ncc(C#N)s2)n1 [I-165] | – | – | 100 | 100 | – | 100 | – | – | – | – | – | – | – | – | 100 | – |
| CNC(=O)c1cnc(-n2nc(C)nc2[C@H](C)NC(=O)c2cc(Cl)cc(C(F)(F)F)c2)s1 [I-69] | 90 | 90 | 100 | 100 | 80 | – | 80 | 100 | – | – | 100 | – | – | – | – | – |
| CNC(=O)c1cnc(-n2ncnc2[C@H](C)NC(=O)c2cc(OC(F)(F)F)cc(S(C)(=O)=O)c2)s1 [I-113] | 100 | – | – | 100 | – | 100 | – | – | – | – | – | – | – | – | 100 | 100 |
| C[C@H](NC(=O)c1cc(S(=O)(=O)C(F)(F)F)cc(S(=O)(=O)C(F)(F)F)c1)c1ncnn1-c1ncc(C#N)s1 [I-138] | – | – | 100 | 100 | – | – | – | – | – | – | – | – | – | – | 100 | – |
| C[C@H](NC(=O)c1cc(I)cc(OC(F)F)c1)c1ncnn1-c1ncc(C#N)s1 [I-38] | – | 90 | – | 100 | 80 | – | 100 | – | – | – | – | – | – | – | – | – |
| CCN(C)C(=O)c1cnc(-n2nc(C)nc2[C@H](C)NC(=O)c2cc(OC(F)(F)F)cc(C3CC3)c2)s1 [I-129] | 100 | – | 100 | 100 | – | – | – | – | – | – | – | – | – | – | 100 | – |
| Cc1nc([C@H](C)NC(=O)c2cc(Br)cc(Br)c2)n(-c2ncc(C(=O)N(C)CC#N)s2)n1 [I-72] | – | 80 | 100 | 100 | 100 | – | 100 | – | – | – | 100 | – | – | – | – | – |
| Cc1nc([C@H](C)NC(=O)c2cc(Cl)cc(C(F)(F)F)c2)n(-c2ncc(C(=O)N(C)CC#N)s2)n1 [I-23] | 90 | 100 | 83 | 100 | 100 | – | 100 | 100 | – | – | 100 | – | – | 90 | – | – |
| Cc1nc([C@H](C)NC(=O)c2cc(Br)cc(C#N)c2)n(-c2ncc(C#N)s2)n1 [I-15] | – | 100 | 83 | 100 | 100 | – | 90 | 100 | – | – | – | – | – | 100 | – | – |
| CC(NC(=O)c1cc(OC(F)(F)F)cc(C2CC2)c1)c1ncnn1-c1ncc(C#N)s1 (stereo not shown) [I-30] | – | – | 100 | 100 | 100 | – | 100 | 100 | – | – | 100 | – | – | 100 | – | – |
| Cc1nc([C@H](C)NC(=O)c2cc(OC(F)(F)F)cc(C3CC3)c2)n(-c2ncc(C(=O)N(C)CC#N)s2)n1 [I-24, N-(cyanomethyl)-2-(5-{(1S)-1-[3-cyclopropyl-5-(trifluoromethoxy)benzamido]ethyl}-3-methyl-1H-1,2,4-triazol-1-yl)-N-methyl-1,3-thiazole-5-carboxamide] | 100 | 100 | 100 | 100 | 80 | – | 100 | 100 | – | – | 100 | – | – | 100 | – | – |
| Cc1nc([C@H](C)NC(=O)c2cc(C(F)(F)F)cc(C(F)(F)F)c2)n(-c2ncc(C(=O)N(C)CC(F)(F)F)s2)n1 [I-11] | – | – | 100 | 100 | 100 | – | 100 | 100 | – | – | 100 | – | – | 100 | – | – |
| Cc1nc([C@H](C)NC(=O)c2cc(Br)cc(OC(F)(F)F)c2)n(-c2ncc(C#N)s2)n1 [I-17] | – | 80 | 100 | 100 | 100 | – | 100 | 100 | – | – | 100 | – | – | 100 | – | – |
